Assay results: US10206904B2, “Licofelone derivatives and methods of use” (The Board of Regents of the University of Oklahoma, priority 2015, dated 2019)
“Also recorded” adds a separate entry of the source. Where two headings read alike, the source gives them in different places.

Assays:
[1] = for Major Organ Toxicity / Ulceration (Grade) Colon / Ulceration (Grade) Small Intestine / Ulceration (Grade) Stomach / Liver enzymes ALKP / Liver enzymes ALT / Liver enzymes AST / Liver enzymes LDH: male C57 mice; for Liver enzymes ALKP / Liver enzymes ALT / Liver enzymes AST / Liver enzymes LDH: Mean ± SEM
Procedure: Body weights and symptoms of toxicity were recorded twice weekly for 6 weeks. […] All organs were examined grossly for any abnormalities upon necropsy. Livers, kidney, stomach, intestinal tract, and blood were obtained from the animals and analyzed for Liver enzyme profile, GI ulceration, and levels of test agents.
All animals found dead will be necropsied to confirm that the most likely cause of death was due to intestinal ulcerations.

[2] = system: AOM plus DSS induced colonic inflammation; settings: for AOM-DSS-Induced Inflammation Score: two weeks, male F344 rats
Excerpt: Inflammation Score based on histological observations using the modified Sydney classification for colonic inflammation:
Following score criteria has been applied: • i. Score 0: No inflammation or changes in the colonic crypt morphology • ii. Score 1. Presence of neutrophil infiltration and chronic lymphocytic inflammation. • iii. Score 2. Surface epithelial damage, mild atrophy, lymphoid follicles • iv. Score 3: Severe atrophy and intestinal metaplasia.

[3] = system: colonic aberrant crypt foci (ACF); settings: male F344 rats
Procedure: Male F344 rats at 8 weeks of age treated with AOM (15 mg/Kg BW) and exposed to 2% DSS for three days. […] Further, the inflammation was scored by following below criteria:
ACF form before colorectal polyps and are an indicator of the potential for cancer.

[4] = biological target: 5-LOX (Rattus norvegicus, UniProt P12527); settings: ex vivo colon tumor homogenate
Sequence of 5-LOX (P12527 whole entry): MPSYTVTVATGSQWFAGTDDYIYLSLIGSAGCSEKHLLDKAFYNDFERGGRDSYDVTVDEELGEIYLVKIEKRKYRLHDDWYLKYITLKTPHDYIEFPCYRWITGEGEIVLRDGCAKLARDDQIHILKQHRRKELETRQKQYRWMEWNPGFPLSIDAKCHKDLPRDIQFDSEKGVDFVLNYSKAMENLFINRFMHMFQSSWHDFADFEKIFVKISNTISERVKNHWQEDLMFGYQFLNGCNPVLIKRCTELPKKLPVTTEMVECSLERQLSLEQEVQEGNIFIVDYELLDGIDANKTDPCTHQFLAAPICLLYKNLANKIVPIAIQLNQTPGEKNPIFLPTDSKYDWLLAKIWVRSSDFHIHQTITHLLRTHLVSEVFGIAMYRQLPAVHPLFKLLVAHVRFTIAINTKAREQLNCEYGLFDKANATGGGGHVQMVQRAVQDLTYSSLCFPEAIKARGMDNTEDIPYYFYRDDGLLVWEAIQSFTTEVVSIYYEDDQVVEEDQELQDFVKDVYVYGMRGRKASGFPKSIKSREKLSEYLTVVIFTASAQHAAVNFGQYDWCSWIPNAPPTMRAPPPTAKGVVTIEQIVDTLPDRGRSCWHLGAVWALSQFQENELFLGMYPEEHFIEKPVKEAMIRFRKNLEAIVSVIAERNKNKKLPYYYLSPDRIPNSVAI
Procedure: (§1) Briefly, colonic tubular adenocarcinomas (ACs) were homogenized in 100 mM Tris-HCl buffer. […] Reaction mixture incubated for 20 min and ^14C-PGE2, 5-^14C-HETE and other 14-C metabolites were extracted and analyzed by Radio-HPLC according to the previously published work.

[5] = system: COX-1/2; settings: ex vivo colon tumor homogenate
Procedure: as §1

[6] = biological target: mPGES-1 (Rattus norvegicus, UniProt Q9JHF3); settings: ex vivo colon tumor homogenate
Sequence of mPGES-1 (Q9JHF3 whole entry): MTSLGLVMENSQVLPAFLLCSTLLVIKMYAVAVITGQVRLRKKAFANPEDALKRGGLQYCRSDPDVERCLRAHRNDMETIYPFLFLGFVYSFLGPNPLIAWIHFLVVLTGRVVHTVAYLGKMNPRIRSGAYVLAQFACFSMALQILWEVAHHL
Procedure: as §1

[7] = system: inflammatory cytokines and receptors; settings: 800 ppm in diet, AOM-induced rat colon tumors
Procedure: Colonic tumors (CTs) were induced by colon specific carcinogen Azoxymethane (15 mg/kg by wt, once weekly for 2 weeks) in F344 rats at 8 weeks' age. […] Rats were killed 36 weeks after second AOM and analyzed for inflammatory cytokines and receptors and compared with control diet fed rat colonic tumors.

[8] = stored in food cups for seven days
Procedure: Then aliquots of samples taken from the top, middle and bottom portions of the diets were analyzed for agents homogeneity of the experimental diets. […] Based on this information, frequency of preparation of experimental diets was once a week, and food cups were changed 3 times a week.
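For Major Organ Toxicity in this document: gross examination of all organs at necropsy, with liver enzyme profile and GI ulceration assessed in collected tissues and blood.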
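For Ulceration (Grade) Colon in this document: gross examination of all organs at necropsy, with liver enzyme profile and GI ulceration assessed in collected tissues and blood.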
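For Ulceration (Grade) Small Intestine in this document: gross examination of all organs at necropsy, with liver enzyme profile and GI ulceration assessed in collected tissues and blood.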
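For Ulceration (Grade) Stomach in this document: gross examination of all organs at necropsy, with liver enzyme profile and GI ulceration assessed in collected tissues and blood.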

CC1(C)Cc2c(-c3ccccc3)c(-c3ccc(Cl)cc3)c(CC(=O)NCC(=O)O)n2C1 [LFA-9, licofelone-glycine]
Major Organ Toxicity ([1]; 100 ppm in diet, 6 weeks): None
Ulceration (Grade) Colon ([1]; 100 ppm in diet, 6 weeks): Grade 0
Ulceration (Grade) Small Intestine ([1]; 100 ppm in diet, 6 weeks): Grade 0
Ulceration (Grade) Stomach ([1]; 100 ppm in diet, 6 weeks): Grade 0
Liver enzymes ALKP ([1]; 100 ppm in diet, 6 weeks): 178 ± 32 units/L
Liver enzymes ALT ([1]; 100 ppm in diet, 6 weeks): 82 ± 15 units/L
Liver enzymes AST ([1]; 100 ppm in diet, 6 weeks): 75 ± 8.5 units/L
Liver enzymes LDH ([1]; 100 ppm in diet, 6 weeks): 408 ± 28 units/L
Major Organ Toxicity ([1]; 200 ppm in diet, 6 weeks): None
Ulceration (Grade) Colon ([1]; 200 ppm in diet, 6 weeks): Grade 0
Ulceration (Grade) Small Intestine ([1]; 200 ppm in diet, 6 weeks): Grade 0
Ulceration (Grade) Stomach ([1]; 200 ppm in diet, 6 weeks): Grade 0
Liver enzymes ALKP ([1]; 200 ppm in diet, 6 weeks): 184 ± 30 units/L
Liver enzymes ALT ([1]; 200 ppm in diet, 6 weeks): 98 ± 13 units/L
Liver enzymes AST ([1]; 200 ppm in diet, 6 weeks): 83 ± 10 units/L
Liver enzymes LDH ([1]; 200 ppm in diet, 6 weeks): 394 ± 19 units/L
Major Organ Toxicity ([1]; 400 ppm in diet, 6 weeks): None
Ulceration (Grade) Colon ([1]; 400 ppm in diet, 6 weeks): Grade 0
Ulceration (Grade) Small Intestine ([1]; 400 ppm in diet, 6 weeks): Grade 0
Ulceration (Grade) Stomach ([1]; 400 ppm in diet, 6 weeks): Grade 0
Liver enzymes ALKP ([1]; 400 ppm in diet, 6 weeks): 187 ± 38 units/L
Liver enzymes ALT ([1]; 400 ppm in diet, 6 weeks): 93 ± 15 units/L
Liver enzymes AST ([1]; 400 ppm in diet, 6 weeks): 68 ± 7.5 units/L
Liver enzymes LDH ([1]; 400 ppm in diet, 6 weeks): 379 ± 29 units/L
Major Organ Toxicity ([1]; 800 ppm in diet, 6 weeks): None
Ulceration (Grade) Colon ([1]; 800 ppm in diet, 6 weeks): Grade 0
Ulceration (Grade) Small Intestine ([1]; 800 ppm in diet, 6 weeks): Grade 0
Ulceration (Grade) Stomach ([1]; 800 ppm in diet, 6 weeks): Grade 0
Liver enzymes ALKP ([1]; 800 ppm in diet, 6 weeks): 181 ± 27 units/L
Liver enzymes ALT ([1]; 800 ppm in diet, 6 weeks): 104 ± 13 units/L
Liver enzymes AST ([1]; 800 ppm in diet, 6 weeks): 82 ± 11 units/L
Liver enzymes LDH ([1]; 800 ppm in diet, 6 weeks): 422 ± 43 units/L
body weight loss or gross histological symptoms of toxicity ([1]; 800 ppm in diet, C57BL/6 mice): do not induce any body weight loss or gross histological symptoms of toxicity
Major Organ Toxicity ([1]; 1,600 ppm in diet, 6 weeks): Liver
Ulceration (Grade) Colon ([1]; 1,600 ppm in diet, 6 weeks): Grade 1
Ulceration (Grade) Small Intestine ([1]; 1,600 ppm in diet, 6 weeks): Grade 0
Ulceration (Grade) Stomach ([1]; 1,600 ppm in diet, 6 weeks): Grade 1
Liver enzymes ALKP ([1]; 1,600 ppm in diet, 6 weeks): 288 ± 24 units/L
Liver enzymes ALT ([1]; 1,600 ppm in diet, 6 weeks): 158 ± 18 units/L
Liver enzymes AST ([1]; 1,600 ppm in diet, 6 weeks): 132 ± 17 units/L
Liver enzymes LDH ([1]; 1,600 ppm in diet, 6 weeks): 589 ± 42 units/L
animals died at the end of six-week exposure ([1]; 1,600 ppm in diet, mice): 3 animals
colonic ulceration at microscopic level ([1]; 1,600 ppm in diet, mice): Grade 1 to 2
liver toxicity by gross pathology ([1]; 1,600 ppm in diet, mice): modest liver toxicity
stomach ulceration at microscopic level ([1]; 1,600 ppm in diet, mice): Grades 2 to 3
body weight loss as compared to control diet fed mice body weight gain ([1]; 1,600 ppm in diet, six weeks, mice): ~30%
ulceration ([1]; doses up to 800 ppm in diet): no ulceration
toxicity and body weight gain ([1]; up to 800 ppm in diet, 6 weeks): does not induce any toxicity; also recorded: did not exhibit toxicity
AOM-DSS-Induced Inflammation Score ([2]; 100 ppm in diet): 1
AOM-DSS-Induced Inflammation Score ([2]; 200 ppm in diet): 0 to 1
AOM-DSS-Induced Inflammation Score ([2]; 400 ppm in diet): 0
AOM-DSS-Induced Inflammation Score ([2]; 600 ppm in diet): 0
AOM-DSS-Induced Inflammation Score ([2]; 800 ppm in diet): 0
infiltration of inflammatory cells in colonic mucosa and submucosa ([2]; >100 ppm in diet, AOM-DSS rats): significantly suppressed infiltration of inflammatory cells
inflammation ([2]; >100 ppm in diet, AOM/DSS rats): completely blocked inflammation
inflammation score ([2]; all rats fed LFA-9, lowest to highest doses (100-800 ppm)): Score 1 (lowest to highest doses) or no inflammation
toxicity in male F344 rats ([2]; up to 800 ppm in diet): did not induce significant toxicity
4 or >multi-crypt AC/colon (Mean ± SEM) ([3]; 200 ppm in diet): 23.5 ± 2.1
% Inhibition (4 or >multi-crypt AC/colon) ([3]; 200 ppm in diet): 30%
% Inhibition (total ACF/colon) ([3]; 200 ppm in diet): 29.5%
Total ACF/Colon (Mean ± SEM) ([3]; 200 ppm in diet): 110 ± 6.1
4 or >multi-crypt AC/colon (Mean ± SEM) ([3]; 400 ppm in diet): 18.3 ± 2.0
% Inhibition (4 or >multi-crypt AC/colon) ([3]; 400 ppm in diet): 45.4%
% Inhibition (total ACF/colon) ([3]; 400 ppm in diet): 44.2%
Total ACF/Colon (Mean ± SEM) ([3]; 400 ppm in diet): 84 ± 5.3
4 or >multi-crypt AC/colon (Mean ± SEM) ([3]; 600 ppm in diet): 13.5 ± 1.7
% Inhibition (4 or >multi-crypt AC/colon) ([3]; 600 ppm in diet): 61.2%
% Inhibition (total ACF/colon) ([3]; 600 ppm in diet): 60.5%
Total ACF/Colon (Mean ± SEM) ([3]; 600 ppm in diet): 62 ± 4.8
% of Inhibition from control, 5LOX (5-14C-HETE from 14C-AA) ([4]; 2.5 μM): 27%
% of Inhibition from control, 5LOX (5-14C-HETE from 14C-AA) ([4]; 5.0 μM): 49%
% of Inhibition from control, 5LOX (5-14C-HETE from 14C-AA) ([4]; 7.5 μM): 68%
% of Inhibition from control, 5LOX (5-14C-HETE from 14C-AA) ([4]; 10 μM): 89%
% of Inhibition from control, 5LOX (5-14C-HETE from 14C-AA) ([4]; 20 μM): 97%
% of Inhibition from control, COX-1/2 (14C-PGs and TXs from 14C-AA) ([5]; 2.5 μM): 4%
% of Inhibition from control, COX-1/2 (14C-PGs and TXs from 14C-AA) ([5]; 5.0 μM): 9%
% of Inhibition from control, COX-1/2 (14C-PGs and TXs from 14C-AA) ([5]; 10 μM): 31%
% of Inhibition from control, COX-1/2 (14C-PGs and TXs from 14C-AA) ([5]; 20 μM): 58%
% of Inhibition from control, mPGES-1 (14C-PGE2 from 14C-PGH2) ([6]; 2.5 μM): 18%
% of Inhibition from control, mPGES-1 (14C-PGE2 from 14C-PGH2) ([6]; 5.0 μM): 32%
% of Inhibition from control, mPGES-1 (14C-PGE2 from 14C-PGH2) ([6]; 7.5 μM): 57%
% of Inhibition from control, mPGES-1 (14C-PGE2 from 14C-PGH2) ([6]; 10 μM): 78%
% of Inhibition from control, mPGES-1 (14C-PGE2 from 14C-PGH2) ([6]; 20 μM): 83%
inflammatory cytokines and their receptors (PCR array) in colon tumors versus control [7]: significantly decreased
stability in diet [8]: > 96%
